Source: article PMC9186373, “Design, synthesis, and biological evaluation of novel carbazole derivatives as potent DNMT1 inhibitors with reasonable PK properties” (Journal of Enzyme Inhibition and Medicinal Chemistry, 2022)
Like-named read-outs stand apart in the source and are kept apart here.

Key:
human DNMT1 = test: ELISA EpiQuik DNA methyltransferase (DNMT) activity/inhibitor assay; format: biochemical; details: 200 nM purified DNMT1, EpiQuik kit; for Inh% at 50 μM: 50 μM compound; for Inh% at 100 μM: 100 μM compound
Protocol: (§1) All the compounds were first screened using an ELISA EpiQuik DNA methyltransferase (DNMT) activity/inhibitor assay kit (Epigentek). To measure the effects of the compounds on human DNMT1 activity, 200 nM purified DNMT1 was incubated with 50 µM and 100 µM of the different compounds and S-adenosylmethionine in the DNMT assay buffer in the assay plate at 37 °C for 2 h[36]. Next, every sample was incubated with the capture and detection antibody, followed by incubation with developer solution for 10 min at room temperature. The absorbance was measured at 450 nm using a POLARstar Omega microplate reader (BMG). S-Adenosylhomocysteine (AdoHcy) was used as a positive control. Methylation inhibition assays for EZH2, LSD, and G9a were performed in modified Tris, pH 9.0, buffer using AlphaLisa technology. An amount of 10 µL of the reaction system contained a corresponding concentration of SAM (Sigma) (EZH2 50 µM, LSD 50 µM, and G9a 50 µM), which was the Km value in each enzymatic reaction, plus 100 nM biotinylated peptide H3 (1–21) (synthesis by GLChina) and the relevant enzyme concentration (0.03 nM EZH2, 0.03 nM LSD, and 0.03 nM G9a). The proteins were preincubated with various compound concentrations for 15 min at room temperature before the substrate and SAM were added. After 60 min of incubation at room temperature, acceptor and donor AlphaLisa beads were added according to the manufacturer’s recommendations. The signals were read in Alpha mode with an EnSpire multimode plate reader (PerkinElmer). IC50 values were derived by fitting the data for the inhibition percentage to a dose-response curve by non-linear regression in GraphPad Prism 5.0[20].
DNMT1 inhibition test was performed on 30 candidates to verify their biochemical activities. The EpiQuik DNA methyl-transferase (DNMT) activity/inhibitor assay kit (Epigentek) was used to identify the activity of synthetic compounds.

DNMT1 = DNMT1 (Homo sapiens, UniProt P26358); test: H3-labelled radioactive methylation assay; format: biochemical; details: H3-labeled radioactive methylation assay; 40 nM DNMT1
Chain of DNMT1 (P26358 whole entry): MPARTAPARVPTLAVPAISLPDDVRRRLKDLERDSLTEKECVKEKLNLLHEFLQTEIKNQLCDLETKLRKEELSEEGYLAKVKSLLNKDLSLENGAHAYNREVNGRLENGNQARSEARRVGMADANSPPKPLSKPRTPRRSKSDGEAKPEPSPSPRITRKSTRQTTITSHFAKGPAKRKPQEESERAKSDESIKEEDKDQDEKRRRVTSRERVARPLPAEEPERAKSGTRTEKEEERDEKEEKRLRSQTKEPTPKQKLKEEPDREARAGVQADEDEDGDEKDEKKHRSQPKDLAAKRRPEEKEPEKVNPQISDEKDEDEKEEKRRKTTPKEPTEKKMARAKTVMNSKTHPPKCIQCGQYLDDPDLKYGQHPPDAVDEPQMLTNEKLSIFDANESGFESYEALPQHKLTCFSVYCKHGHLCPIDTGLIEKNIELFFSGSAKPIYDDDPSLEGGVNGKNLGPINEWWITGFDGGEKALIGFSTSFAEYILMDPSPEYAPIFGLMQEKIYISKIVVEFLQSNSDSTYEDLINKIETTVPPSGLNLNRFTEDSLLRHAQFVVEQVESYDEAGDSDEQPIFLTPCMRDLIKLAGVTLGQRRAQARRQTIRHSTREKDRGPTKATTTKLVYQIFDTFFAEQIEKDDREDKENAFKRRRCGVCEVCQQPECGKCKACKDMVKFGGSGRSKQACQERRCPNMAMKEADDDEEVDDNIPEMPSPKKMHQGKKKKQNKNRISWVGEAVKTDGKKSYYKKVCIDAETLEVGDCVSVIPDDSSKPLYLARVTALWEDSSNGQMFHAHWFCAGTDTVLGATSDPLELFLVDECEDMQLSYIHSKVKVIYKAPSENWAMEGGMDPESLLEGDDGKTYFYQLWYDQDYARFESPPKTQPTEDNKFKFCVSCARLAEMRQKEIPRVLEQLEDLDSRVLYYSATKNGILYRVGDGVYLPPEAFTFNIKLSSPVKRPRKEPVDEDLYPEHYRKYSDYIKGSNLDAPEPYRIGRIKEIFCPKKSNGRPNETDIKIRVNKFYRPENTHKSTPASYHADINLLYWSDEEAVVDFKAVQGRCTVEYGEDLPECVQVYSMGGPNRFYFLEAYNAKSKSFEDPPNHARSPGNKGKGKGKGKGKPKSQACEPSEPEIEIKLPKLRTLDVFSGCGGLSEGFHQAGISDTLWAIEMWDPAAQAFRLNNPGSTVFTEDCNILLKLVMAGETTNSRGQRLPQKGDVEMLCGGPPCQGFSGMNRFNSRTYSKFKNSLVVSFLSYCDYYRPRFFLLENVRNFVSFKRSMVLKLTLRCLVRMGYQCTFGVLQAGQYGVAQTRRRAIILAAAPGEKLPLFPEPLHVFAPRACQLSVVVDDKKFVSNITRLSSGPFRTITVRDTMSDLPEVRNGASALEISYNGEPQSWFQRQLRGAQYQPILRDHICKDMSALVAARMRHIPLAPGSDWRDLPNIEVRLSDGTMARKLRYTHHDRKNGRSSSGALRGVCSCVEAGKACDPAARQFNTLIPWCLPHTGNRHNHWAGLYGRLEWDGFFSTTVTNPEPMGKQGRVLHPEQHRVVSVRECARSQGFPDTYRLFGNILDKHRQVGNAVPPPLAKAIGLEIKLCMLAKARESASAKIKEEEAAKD
Protocol: The DNMT1 radioactive methylation inhibition assays were performed in 30 µL reactions containing 0.1 µM adenosyl-L-methionine S-[methyl-^3H] (^3H-SAM, ^15 Ci/mmol, PerkinElmer), 0.25 µg/mL poly (dI-dC)·poly (dI-dC) (Sigma), 40 nM DNMT1 in 50 mM Tris-HCl, pH 8.0, 1 mM DTT, 5% glycerol, and 100 µg/mL BSA. The proteins were preincubated with a range of compound concentrations for 15 min at room temperature before adding the substrate and [^3H] SAM. After 60 min of incubation at 37 °C, the reaction systems were transferred to a MultiScreen HTS filter plate (Millipore), and the plate was washed 3 times with doubly distilled H2O via a vacuum. The radioactivity was determined by liquid scintillation counting (MicroBeta, PerkinElmer). IC50 values were derived by fitting the data for the inhibition percentage to a dose-response curve by non-linear regression in GraphPad Prism 5.0.
To quantitatively analyse DNMT1 inhibitory effect, the H^3-labelled radioactive methylation assay was conducted to measure the methyltransferase activity of DNMT1 at a range of concentrations for these compounds.

LSD1 = test: Methylation inhibition assay (AlphaLisa), LSD1; format: biochemical; details: 1 - selected enzyme inhibition/DNMT1 inhibition; 50 µM
Protocol: as §1
(§2) In addition to DNMT1, there are many other methyltransferases that can bind with S-adenosyl-L-methionine (SAM) to facilitate transmethylation reactions[24]^,[25]. To investigate the selectivity of these potent compounds for DNMT1, we then evaluated the inhibitory activities against DNMT1 and other important methyltransferases at the concentration of 50 µM, including DNMT3A/3L, DNMT3B/3L, and other SAM-dependent enzymes[1]^,[2]^,[26], such as EZH2[27], LSD1[28], G9a (histone H3 lysine 9 methyltransferase)[29].
(§3) 493 Relative selectivity index
(§4) 494 Relative selectivity index of DNMT1 is calculated by formula: DNMT1-selectivity
(§5) 495 index =1 - selected enzyme inhibition/DNMT1 inhibition. The closer
(§6) 496 that this value is to 1 or even more than 1, the better DNMT1-selectivity the of the
(§7) 498 Table S1. Relative selectivity index of DNMT1
Cpd. […]

[1] = test system: HCT116 (human colon cancer cells); test: MTT assay, HCT116; format: cell-based
Protocol: (§8) The human lung cancer cells (A549) and human colon cancer cells (HCT116) were cultured in an RPMI-1640 medium containing 10% FBS, 100 U/mL streptomycin, and 100 U/mL penicillin at 37 °C in a humidified atmosphere with 5% CO2. All compounds were dissolved in DMSO and stock solutions were stored at −20 °C. Reagents were freshly diluted to the marked concentrations with a culture medium before use. DMSO concentration in experimental conditions never exceeded 0.1% (v/v). All cell lines were provided by the cell laboratory, School of pharmaceutical sciences, Guangzhou Medical University.
(§9) Cell viability was detected using an MTT assay kit. Cells were seeded into 96-well plates at a density of ∼1.0 × 10^4/well. 24 h later, sextuplicate wells were treated with media and new compounds at a fixed concentration (50 µM). After 24, 48, and 72 h, the drug-containing medium was replaced by a 100 µL fresh medium with 5 mg/mL MTT solution. After 4 h of incubation, the medium with MTT was removed, and 100 µL of DMSO was added to each well. The plates were gently agitated until the purple formazan crystals were dissolved, and the OD490 was determined using a […] (Olympus BX53, Japan). The data were calculated and plotted as the percent viability compared to the control.

DNMT3B/3L = test: Methyltransferase enzymatic selectivity profiling, DNMT3B/3L; format: biochemical; details: 50 µM; for Relative selectivity index of DNMT1 vs DNMT 3B/3L: 1 - selected enzyme inhibition/DNMT1 inhibition
Protocol: as §2
(§10) Here, the selectivity of non-nucleoside DNMT1 inhibitors is somewhat predictable because other methyltransferases mentioned above catalyse different substrates and share very low homology with DNMT1, even in their catalytic domain[30–32]. Subsequently, the screened compounds were evaluated in a dose-dependent assay against HCT116 (human colon cancer cell line) and A549 (human lung carcinoma cell line).
as §3, §4, §5, §6, §7
Cpd. […]

[2] = test system: A549 (human lung cancer cells); test: MTT assay, A549; format: cell-based
Protocol: as §8, §9

DNMT3A/3L = test: Methyltransferase enzymatic selectivity profiling, DNMT3A/3L; format: biochemical; details: 1 - selected enzyme inhibition/DNMT1 inhibition; 50 µM
Protocol: as §2, §10, §3, §4, §5, §6, §7
Cpd. […]

EZH2 = test: Methylation inhibition assay (AlphaLisa), EZH2; format: biochemical; details: 50 µM; for inhibitory activity against EZH2: Figure 3; for Relative selectivity index of DNMT1 vs EZH2: 1 - selected enzyme inhibition/DNMT1 inhibition
Protocol: as §1, §2, §3, §4, §5, §6, §7
Cpd. […]

[3] = test system: G9a (histone H3 lysine 9 methyltransferase); test: Methylation inhibition assay (AlphaLisa), G9a; format: biochemical; details: 50 µM; for inhibitory activity against G9a: Figure 3; for Relative selectivity index of DNMT1 vs G9a: 1 - selected enzyme inhibition/DNMT1 inhibition
Protocol: as §1, §2, §3, §4, §5, §6, §7
Cpd. […]

PK study in SD rats = format: in vivo; details: rat, plasma, SD male rats; for AUC(0-t) / Tmax / half-life: mean ± SD (n = 3); for bioavailability: p.o. 10 mg/kg vs i.v. 2 mg/kg, F = (AUC p.o. × Dose i.v.)/(AUC i.v. × Dose p.o.) × 100%
Protocol: In vivo pharmacokinetic properties of WK-22, WK-23, WK-27, and DC_517 were performed by Medicilon Company, Shanghai, China. SPF-grade SD male rats (8 groups, n = 3 rats per group) with a body weight of 230–260 g were purchased from Shanghai SIPPR-BK LAB Animal Ltd., Shanghai, China, and used for the pharmacokinetic analysis of the tested compounds. All animals were deprived of food overnight after the cannulation surgery. Subsequently, the tested compounds WK-23 and DC_517 were dissolved/suspended in 5% DMSO, 10% Solutol, and 85% water, and the tested compounds WK-22 and WK-27 were dissolved/suspended in 5% DMSO, 40% PEG400, and 55% saline for intravenous administration (i.v.) and oral administration (p.o.), respectively. A final dosage of 2.0 and 10.0 mg/kg rat of the formulated compounds was administered for i.v. and p.o. purposes, respectively, and the blood samples were taken at various time points during a 24 h period. At different time points, blood samples were collected from the femoral vein. The plasma samples were obtained after centrifugation (6800 g, 6 min, 2–8 °C) and stored at −80 °C until the assay. The AUC (area under concentration-time curve) was calculated through the trapezoidal rule with extrapolation to time infinity. The concentration of the compounds in the blood was analysed by LC-MS/MS (Shimadzu liquid chromatographic system and SCIEX Triple Quad 5500+ mass spectrometer, Applied Biosystems, Ontario, Canada). The Tmax, T1/2, and Cmax value was obtained through visual inspection of the plasma concentration-time curve. The Vss value was generated from DAS 3.2.8 software. The F value of WK-23 was calculated with the formula: F = (AUC p.o. × Dose i.v.)/(AUC i.v. × Dose p.o.) × 100%.

Compound	Inh% at 50 μM (human DNMT1) [%]	Inh% at 100 μM (human DNMT1) [%]	IC50 (DNMT1) [µM]	Relative selectivity index of DNMT1 vs LSD1 (LSD1)	Relative selectivity index of DNMT1 vs DNMT 3B/3L (DNMT3B/3L)	melting point [°C]	Relative selectivity index of DNMT1 vs DNMT 3A/3L (DNMT3A/3L)	inhibitory activity against EZH2 (EZH2)	Relative selectivity index of DNMT1 vs EZH2 (EZH2)	inhibitory activity against G9a [3]	Relative selectivity index of DNMT1 vs G9a [3]	also measured
Oc1ccc(CCNCC(O)Cn2c3ccc(F)cc3c3cc(F)ccc32)cc1 (stereo not drawn) [WK-13, 4-(2-((3-(3,6-Difluoro-9H-carbazol-9-yl)-2-hydroxypropyl)amino)ethyl) phenol]	82	90	19	0.33	1.28	143 to 145	0.68	hardly any inhibitory activities	1.01	hardly any inhibitory activities	0.91	inhibition at 50 µM ([1]; HCT-116, 48 h, read-out: Inh % at 50 μM, HCT116, 48 h): 86.3%; inhibition at 50 µM ([1]; HCT-116, 72 h, read-out: Inh % at 50 μM, HCT116, 72 h): 93.2%; inhibitory activity against DNMT3B/3L (DNMT3B/3L; Figure 3): hardly any inhibitory activities; inhibition at 50 µM ([2]; 48 h, read-out: Inh % at 50 μM, A549, 48 h): 69.2%; inhibition at 50 µM ([2]; 72 h, read-out: Inh % at 50 μM, A549, 72 h): 84.1%
OC[C@H]1CN(CC(O)COC(Cn2c3ccccc3c3cc(F)ccc32)Cn2c3ccc(F)cc3c3cc(F)ccc32)CCN1 (stereo partly drawn) [WK-27, 1-((1-(3,6-Difluoro-9H-carbazol-9-yl)-3-(3-fluoro-9H-carbazol-9-yl)propan-2-yl)oxy)-3-((R)-3-(hydroxymethyl)piperazin-1-yl)propan-2-ol]	100	100	–	0.05	0.03	150 to 152	0.03	nearly no inhibitory activities	0.9	nearly no inhibitory activities	0.97	AUC(0-t) (PK study in SD rats; iv, i.v. (2 mg/kg)): 427 ± 60 ng·h/mL; Tmax (PK study in SD rats; iv, i.v. (2 mg/kg)): 0.1 h; half-life (PK study in SD rats; iv, i.v. (2 mg/kg)): 11.5 ± 1.2 h; bioavailability (PK study in SD rats; oral): 1.8%; bioavailability (PK study in SD rats; po): 1.8 ± 1.9%; AUC(0-t) (PK study in SD rats; po, p.o. (10 mg/kg)): 28.5 ± 40 ng·h/mL; Tmax (PK study in SD rats; po, p.o. (10 mg/kg)): 2.7 ± 1.2 h; half-life (PK study in SD rats; po, p.o. (10 mg/kg)): 3.9 ± 2.5 h
OC(CNCCc1ccc(F)cc1)Cn1c2ccc(F)cc2c2cc(F)ccc21 (stereo not drawn) [WK-14, 1-(3,6-Difluoro-9H-carbazol-9-yl)-3-((4-fluorophenethyl)amino)propan-2-ol]	79	84	6	–	–	114 to 116	–	–	–	–	–	–
CC(C)(C)NCC(O)COC(Cn1c2ccccc2c2cc(F)ccc21)Cn1c2ccccc2c2cc(F)ccc21 (stereo not drawn) [WK-25, 1-((1,3-Bis(3-fluoro-9H-carbazol-9-yl)propan-2-yl)oxy)-3-(tert-butylamino)propan-2-ol]	100	100	–	0.02	1.44	183 to 185	0.94	–	0.89	–	0.99	–
OC(CNCCc1ccccc1)Cn1c2ccc(F)cc2c2cc(F)ccc21 (stereo not drawn) [WK-15, 1-(3,6-Difluoro-9H-carbazol-9-yl)-3-(phenethylamino)propan-2-ol]	75	82	7.7	–	–	91 to 93	–	–	–	–	–	–
CC(CO)NCC(O)Cn1c2ccccc2c2cc(F)ccc21 (stereo not drawn) [WK-7, 2-((3-(3-Fluoro-9H-carbazol-9-yl)-2-hydroxypropyl)amino)propan-1-ol]	67	83	9.6	–	–	119 to 121	–	–	–	–	–	–
